Results reported in the supplement of paper PMC10307832.

How the values were obtained:
Test in all cases: relative viability (nuclei count vs DMSO), 5 days (fraction); higher = more cells survive
NCI-H1299 = test system: NCI-H1299
Procedure, shortened: (§1)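 For relative viability, nuclei counts in treated wells were divided by those in vehicle wells. Lung cancer cell lines had been pin-tool dosed in 1536-well plates the day after seeding and cultured for 5 days, then fixed and stained in one step (final 0.05% Triton X-100, 1% formaldehyde, 1 ug/ml Hoechst) and imaged at 4×. Doses were one drug alone or a fixed anchor-drug dose plus five library-drug doses (not always all listed) in √10 steps, and values are duplicate-plate medians.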

A549 = test system: A549
Procedure, shortened: as §1

EBC-1 = test system: EBC-1
Procedure, shortened: as §1

CAL-12T = test system: CAL-12T
Procedure, shortened: as §1

IA-LM = test system: IA-LM
Procedure, shortened: as §1

Calu-6 = test system: Calu-6
Procedure, shortened: as §1

NCI-H1703 = test system: NCI-H1703
Procedure, shortened: as §1

SMILES | relative viability (NCI-H1299; first compound 0.04 µM) | relative viability (NCI-H1299; first compound 0.1265 µM) | relative viability (NCI-H1299; first compound 0.4 µM) | relative viability (NCI-H1299; first compound 4 µM) | relative viability (A549; first compound 0.04 µM) | relative viability (A549; first compound 0.1265 µM) | relative viability (A549; first compound 0.4 µM) | relative viability (A549; first compound 4 µM) | relative viability (EBC-1; first compound 0.04 µM) | relative viability (EBC-1; first compound 0.1265 µM) | relative viability (EBC-1; first compound 0.4 µM) | relative viability (EBC-1; first compound 4 µM) | relative viability (CAL-12T; first compound 0.04 µM) | relative viability (CAL-12T; first compound 0.1265 µM) | relative viability (CAL-12T; first compound 0.4 µM) | relative viability (CAL-12T; first compound 4 µM) | relative viability (IA-LM; first compound 0.04 µM) | relative viability (IA-LM; first compound 0.1265 µM) | relative viability (IA-LM; first compound 0.4 µM) | relative viability (IA-LM; first compound 4 µM) | further results
COc1cc(N2CCC(C(N)=O)CC2)ccc1Nc1nc(N)c(Cl)c(Nc2ccccc2S(=O)(=O)C(C)C)n1 [HG-5-88-01] + Cc1nc(NC(=O)N2CCC[C@H]2C(N)=O)sc1-c1ccnc(C(C)(C)C(F)(F)F)c1 [Alpelisib] (partner 2 µM) | 1.04 | 1.09 | 0.972 | 1.12 | 0.925 | 0.715 | 0.698 | 0.527 | 0.876 | 0.98 | 0.795 | 0.86 | 1.11 | 1.3 | 1.19 | 0.874 | 0.722 | 1 | 0.627 | 0.503 | relative viability (NCI-H1299; first compound 1.265 µM): 1.05; relative viability (A549; first compound 1.265 µM): 0.474; relative viability (EBC-1; first compound 1.265 µM): 0.768; relative viability (CAL-12T; first compound 1.265 µM): 1.12; relative viability (IA-LM; first compound 1.265 µM): 0.447; relative viability (Calu-6; first compound 0.04 µM): 1.02; relative viability (Calu-6; first compound 0.1265 µM): 1.01; relative viability (Calu-6; first compound 0.4 µM): 0.908; relative viability (Calu-6; first compound 1.265 µM): 0.856; relative viability (Calu-6; first compound 4 µM): 0.885; relative viability (NCI-H1703; first compound 0.04 µM): 0.265; relative viability (NCI-H1703; first compound 0.1265 µM): 0.317; relative viability (NCI-H1703; first compound 0.4 µM): 0.38; relative viability (NCI-H1703; first compound 1.265 µM): 0.303; relative viability (NCI-H1703; first compound 4 µM): 0.399
CC(C)Oc1cc(Nc2nc(N[C@@H](C)c3ccc(F)cn3)ncc2Cl)n[nH]1 [AZ23] + Cc1nc(NC(=O)N2CCC[C@H]2C(N)=O)sc1-c1ccnc(C(C)(C)C(F)(F)F)c1 [Alpelisib] (partner 2 µM) | – | – | – | – | – | – | – | – | – | – | – | – | – | – | – | – | – | – | – | – | relative viability (NCI-H1299; first compound 0.01 µM): 1.16; relative viability (NCI-H1299; first compound 0.03162 µM): 1.09; relative viability (NCI-H1299; first compound 0.3162 µM): 1.23; relative viability (A549; first compound 0.01 µM): 0.738; relative viability (A549; first compound 0.03162 µM): 0.758; relative viability (A549; first compound 0.3162 µM): 0.716; relative viability (EBC-1; first compound 0.01 µM): 0.826; relative viability (EBC-1; first compound 0.03162 µM): 0.869; relative viability (EBC-1; first compound 0.3162 µM): 0.859; relative viability (CAL-12T; first compound 0.01 µM): 0.787; relative viability (CAL-12T; first compound 0.03162 µM): 1.26; relative viability (CAL-12T; first compound 0.3162 µM): 1.28; relative viability (IA-LM; first compound 0.01 µM): 0.729; relative viability (IA-LM; first compound 0.03162 µM): 0.98; relative viability (IA-LM; first compound 0.3162 µM): 0.943; relative viability (Calu-6; first compound 0.03162 µM): 1.12; relative viability (Calu-6; first compound 0.3162 µM): 1.11; relative viability (NCI-H1703; first compound 0.03162 µM): 0.434; relative viability (NCI-H1703; first compound 0.3162 µM): 0.308
C[C@@H]1CN(CC(=O)Nc2ccc3c(c2)Cc2cccc(-c4cc(=O)cc(N5CCOCC5)o4)c2S3)C[C@H](C)O1 + CS(=O)(=O)N1CCN(Cc2cc3nc(-c4cccc5[nH]ncc45)nc(N4CCOCC4)c3s2)CC1 [Pictilisib] (partner 1 µM) | 0.898 | 0.739 | 0.848 | 0.689 | 0.524 | 0.594 | 0.444 | 0.323 | 0.487 | 0.412 | 0.244 | 0.266 | 0.396 | 0.487 | 0.396 | 0.378 | 0.3 | 0.372 | 0.301 | 0.234 | relative viability (Calu-6; first compound 0.04 µM): 0.962; relative viability (Calu-6; first compound 0.1265 µM): 0.97; relative viability (Calu-6; first compound 0.4 µM): 0.925; relative viability (Calu-6; first compound 4 µM): 0.8; relative viability (NCI-H1703; first compound 0.04 µM): 0.249; relative viability (NCI-H1703; first compound 0.1265 µM): 0.243; relative viability (NCI-H1703; first compound 0.4 µM): 0.238; relative viability (NCI-H1703; first compound 4 µM): 0.205
C[C@@H]1CN(CC(=O)Nc2ccc3c(c2)Cc2cccc(-c4cc(=O)cc(N5CCOCC5)o4)c2S3)C[C@H](C)O1 + C[C@@H](Oc1cc(-c2cnn(C3CCNCC3)c2)cnc1N)c1c(Cl)ccc(F)c1Cl [Crizotinib] (partner 1 µM) | 0.915 | 0.92 | 0.844 | 0.837 | 0.909 | 0.772 | 0.874 | 0.522 | 0.202 | 0.203 | 0.201 | 0.2 | 0.644 | 0.526 | 0.693 | 0.297 | 1.02 | 0.671 | 0.657 | 0.36 | relative viability (Calu-6; first compound 0.04 µM): 0.829; relative viability (Calu-6; first compound 0.1265 µM): 0.719; relative viability (Calu-6; first compound 0.4 µM): 0.597; relative viability (Calu-6; first compound 4 µM): 0.528; relative viability (NCI-H1703; first compound 0.04 µM): 0.607; relative viability (NCI-H1703; first compound 0.1265 µM): 0.678; relative viability (NCI-H1703; first compound 0.4 µM): 0.595; relative viability (NCI-H1703; first compound 4 µM): 0.513
Clc1ccc(Nc2nnc(Cc3ccncc3)c3ccccc23)cc1 [Vatalanib] + C[C@]1(O)C[C@@H](c2nc(-c3ccc4ccc(-c5ccccc5)nc4c3)c3c(N)nccn32)C1 [Linsitinib] (partner 1 µM) | 1.05 | 0.955 | 0.948 | 0.967 | 0.51 | 0.573 | 0.703 | 0.592 | 1.14 | 0.777 | 0.994 | 0.808 | 0.826 | 0.787 | 0.848 | 0.822 | 0.763 | 0.59 | 0.69 | 0.582 | relative viability (NCI-H1299; first compound 1.265 µM): 0.961; relative viability (A549; first compound 1.265 µM): 0.656; relative viability (EBC-1; first compound 1.265 µM): 0.812; relative viability (CAL-12T; first compound 1.265 µM): 0.755; relative viability (IA-LM; first compound 1.265 µM): 0.55; relative viability (Calu-6; first compound 0.1265 µM): 0.926; relative viability (Calu-6; first compound 0.4 µM): 1.02; relative viability (Calu-6; first compound 1.265 µM): 0.912; relative viability (Calu-6; first compound 4 µM): 1.01; relative viability (NCI-H1703; first compound 0.04 µM): 0.804; relative viability (NCI-H1703; first compound 0.4 µM): 1.21; relative viability (NCI-H1703; first compound 1.265 µM): 0.386; relative viability (NCI-H1703; first compound 4 µM): 0.211
